Source: patent US20200096503A1, “CELL MEMBRANE COATED MAGNETIC NANOPARTICLES AND ASSAYS FOR IDENTIFICATION OF TRANSMEMBRANE PROTEIN-BINDING COMPOUNDS” (The Board of Trustees of The University of Alabama, priority 2018, published 2020)

Tests used:
[1] = system: nicotinic receptors; test: Ligand fishing with CMNPs with immobilized nicotinic receptors, artificial mixture of known binders and non-binders; type: binding; settings: equimolar (100 nM) artificial mixture; three washes with ammonium acetate buffer; elution buffer:methanol (9:1, v/v)
Experimental: Fishing experiments can be used to evaluate the CMNP assay. As an example, CMNPs were constructed with immobilized nicotinic receptors. Parameters include selectivity, detection limit, stability, and reuse of CMNPs. The assay or fishing experiment (FIG. 3A) involves magnetic separation of CMNPs with bound compounds after 20 min incubation in an artificial mixture of known binders and nonbinders. After 3 washes with buffer, receptor-bound compounds are released during the elution process. Eluted compounds can be analyzed by high-performance liquid chromatography coupled with diode-array detection and electrospray ionization tandem mass spectrometry (HPLC-DAD-MS).
(§1) Screening experiments can be conducted with samples of various level of complexity (artificial mixtures, natural extracts with known binders). First, artificial mixtures of known binders and non-binders can be used to evaluate selectivity. In a particular example, CMNPs containing nicotinic receptors were prepared. An artificial equimolar (100 nM) mixture of known binders and non-binders was also prepared. Known binders included known nicotinic receptor binders: nicotine (#1), anabasine (#2), cytisine (#3) and non-binders: butyrylcholine iodide (#4), berberine (#5), warfarin (#6) and caffeic acid (#7). First, the CMNPs (˜10^9) were placed in 0.5 mL artificial mixture and incubated. CMNPs were subsequently washed three times with ammonium acetate buffer. After washing, CMNPs were eluted with a buffer:methanol (9:1, v/v) mixture. In both the washing and elution steps, CMNPs were separated from supernatant using a magnet.

[2] = system: CMNPs prepared using parental HEK cell line not expressing nicotinic receptors; test: Fishing with negative control CMNPs prepared from parental HEK cell line not expressing nicotinic receptors; type: binding; settings: fishing experiments, data not shown
Experimental: as §1
As an example, CMNPs containing nicotinic receptors were used to screen a different set of potential binders in a crude mixture: that of tobacco smoke condensates (FIG. 5). The results obtained with nicotinic receptor CMNPs were compared with those obtained for negative control CMNPs. […] Therefore, the only difference between nicotinic and negative control CMNPs is the absence of nicotinic receptors in control CMNPs. After three washes with ammonium acetate buffer, the CMNPs were eluted using first ammonium acetate buffer:methanol mixture (9:1, v/v; elutions 1-3), and then ammonium acetate buffer methanol mixture (1:9, v/v, elution 4).

[3] = biological target: T1, TrkB receptors (Homo sapiens, UniProt Q16620); test: Fishing experiments with CMNPs with immobilized TrkB receptors, artificial mixture; type: binding; settings: equimolar (100 nM) mixture, HPLC-ESI-MS of washing and elution profiles
T1 construct: expressed in transfected cells; host or cells: SH-SY5Y neuroblastoma cells stably overexpressing TrkB
Experimental: Functional TrkB receptors (example of tyrosine kinase receptors) were immobilized on nanoparticles using the CMNPs technology described herein. Neuroblastoma SH-SY5Y cell line stably overexpressing TrkB receptors were used. Cell membrane fragments and nanoparticles used in the preparation of CMNPs were obtained using the previously optimized protocols, as described for the nicotinic receptors.
The fishing experiments were performed using the procedure previously optimized and described herein for nicotinic receptors. Washing and elution steps were performed using solvents previously reported for nicotinic receptor experiments. The difference between nicotinic and TrkB receptor experiments was with the type of artificial mixture components.

[4] = system: negative control CMNPs prepared with the parental SH-SY5Y cell line without TrkB receptors; test: Fishing with negative control CMNPs prepared with the parental SH-SY5Y cell line without TrkB receptors; type: binding
Text: The use of negative control CMNPs prepared with the parental SH-SY5Y cell line without TrkB receptors allowed discernment between specific and non-specific interactions. […] Compounds interacting only with CMNPs expressing TrkB receptors and not interacting with negative control CMNPs are specifically binding with TrkB receptors.

[5] = biological target: T1, TrkB receptors; test: Conversion of ATP to ADP by immobilized TrkB receptors on CMNPs (HPLC-ESI-MS); type: biochemical; settings: for conversion of ATP to ADP by CMNPs with TrkB receptors: 5 mM ATP, 100 μM activator
Experimental: To further test the activity of the immobilized TrkB receptors, additional experiments that focused on determining the ability of the immobilized receptors to convert ATP to ADP were performed, a process commonly performed by all types of tyrosine kinase receptors. Tyrosine kinases, when active, convert ATP to ADP as they use phosphate groups to phosphorylate targeted proteins in the process of signal transduction inside a cell. […] 37° C.

T1 sequence (Q16620 32-822): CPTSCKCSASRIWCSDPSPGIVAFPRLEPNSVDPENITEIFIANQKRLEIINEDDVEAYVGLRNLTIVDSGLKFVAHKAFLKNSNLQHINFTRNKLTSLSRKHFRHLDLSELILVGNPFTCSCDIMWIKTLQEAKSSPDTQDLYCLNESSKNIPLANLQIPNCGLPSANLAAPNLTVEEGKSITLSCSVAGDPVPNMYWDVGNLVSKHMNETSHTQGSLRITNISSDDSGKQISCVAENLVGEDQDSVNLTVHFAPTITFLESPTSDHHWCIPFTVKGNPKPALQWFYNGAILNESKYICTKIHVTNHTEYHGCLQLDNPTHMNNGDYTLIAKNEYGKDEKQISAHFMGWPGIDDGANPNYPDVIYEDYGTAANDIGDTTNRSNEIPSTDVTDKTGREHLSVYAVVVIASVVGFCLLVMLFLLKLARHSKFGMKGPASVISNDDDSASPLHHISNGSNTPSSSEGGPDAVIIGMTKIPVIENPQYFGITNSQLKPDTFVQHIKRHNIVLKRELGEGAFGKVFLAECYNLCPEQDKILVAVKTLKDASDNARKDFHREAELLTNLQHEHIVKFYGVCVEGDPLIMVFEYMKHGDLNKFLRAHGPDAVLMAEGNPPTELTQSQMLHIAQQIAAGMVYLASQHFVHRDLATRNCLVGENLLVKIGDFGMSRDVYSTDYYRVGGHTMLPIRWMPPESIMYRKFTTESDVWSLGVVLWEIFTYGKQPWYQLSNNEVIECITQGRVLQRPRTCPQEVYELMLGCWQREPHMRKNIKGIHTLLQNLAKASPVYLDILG

| SMILES | retention by CMNPs with immobilized nicotinic receptors (washing/elution, HPLC) [1] | nonspecific binding to CMNPs from parental HEK cell line not expressing nicotinic receptors [2] | also measured |
| --- | --- | --- | --- |
| CCCC(=O)OCC[N+](C)(C)C.[I-] [butyrylcholine, butyrylcholine iodide] | absence |  |  |
| c1cncc([C@@H]2CCCCN2)c1 [anabasine] | selectively retained | lack of nonspecific binding |  |
| O=c1cccc2n1C[C@@H]1CNC[C@H]2C1 [cytisine] | selectively retained | lack of nonspecific binding |  |
| O=C(O)/C=C/c1ccc(O)c(O)c1 [caffeic acid] | absence |  |  |
| COc1ccc2cc3[n+](cc2c1OC)CCc1cc2c(cc1-3)OCO2 [berberine] | absence |  |  |
| CN1CCCC1c1cccnc1 (stereo not drawn) [nicotine] | selectively retained | lack of nonspecific binding | retention by / interaction with CMNPs with immobilized TrkB receptors [3]: retained small amount; retention by / interaction with CMNPs with immobilized TrkB receptors ([3]; listed as Nicotine): interacted both with CMNPs with and without TrkB receptors; interaction with negative control CMNPs without TrkB receptors [4]: interacted both with CMNPs with and without TrkB receptors |
| O=c1cc(-c2ccccc2)oc2c(O)c(O)ccc12 [7,8-dihydroxyflavone] |  |  | retention by / interaction with CMNPs with immobilized TrkB receptors [3]: interacted only with CMNPs with TrkB receptors; retention by / interaction with CMNPs with immobilized TrkB receptors ([3]; listed as 7,8-DHF): retained; interaction with negative control CMNPs without TrkB receptors [4]: no interaction; conversion of ATP to ADP by CMNPs with TrkB receptors ([5]; 24-hour incubation, 4° C.): almost complete conversion of ATP to ADP; conversion of ATP to ADP by CMNPs with TrkB receptors ([5]; 30 and 60 min, 37° C.): progressing conversion of ATP to ADP; conversion of ATP to ADP by nanoparticles themselves (structures inside CMNPs) ([5]; nanoparticles without cell membrane, ATP (5 mM), activator 100 μM): did not lead to the conversion of ATP to ADP |
